The record followed here is ChEMBL document CHEMBL3608256, “Strongylophorines, new protein tyrosine phosphatase 1B inhibitors, from the marine sponge Strongylophora strongilata collected at Iriomote Island” (Bioorg Med Chem Lett, 2015).

The structures appear in SMILES notation.

This test concerns the target T1, Tyrosine-protein phosphatase non-receptor type 1 (Homo sapiens, UniProt P18031).
T1 sequence (P18031 whole entry): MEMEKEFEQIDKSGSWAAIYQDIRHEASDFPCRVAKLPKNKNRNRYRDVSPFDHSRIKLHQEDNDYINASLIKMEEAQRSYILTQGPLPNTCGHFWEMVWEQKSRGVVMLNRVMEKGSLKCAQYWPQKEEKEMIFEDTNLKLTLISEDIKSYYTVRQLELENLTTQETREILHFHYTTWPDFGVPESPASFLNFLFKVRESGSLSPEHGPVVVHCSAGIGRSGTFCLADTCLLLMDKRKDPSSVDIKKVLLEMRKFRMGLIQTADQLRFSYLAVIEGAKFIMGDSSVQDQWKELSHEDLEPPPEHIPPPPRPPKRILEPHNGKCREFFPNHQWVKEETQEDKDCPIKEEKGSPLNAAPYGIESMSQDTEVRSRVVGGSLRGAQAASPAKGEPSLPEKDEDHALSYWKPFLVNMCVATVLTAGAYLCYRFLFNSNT
Description: Inhibition of PTP1B (unknown origin) pre-incubated for 10 mins before addition of p-nitrophenyl phosphate substrate and measured 30 mins post substrate addition.
With `CCO[C@H]1OC[C@]23CCC[C@]1(C)[C@@H]2CC[C@]1(C)[C@@H]3CC[C@](C)(O)[C@H]1Cc1cc(O)ccc1O`, it took 8.7 µM to reach half-maximal inhibition (IC50). This counts as single-digit micromolar.

For `CO[C@H]1OC[C@]23CCC[C@]1(C)[C@@H]2CC[C@]1(C)[C@@H]3CC[C@]2(C)Oc3ccccc3C[C@@H]12`, the IC50 (in general, the concentration that inhibits the measured activity by half) was 8.5 µM.

As to `C[C@]12CCC[C@@]3(CO[C@@H]1O)[C@H]2CC[C@]1(C)[C@@H]3CC[C@]2(C)Oc3ccc(O)cc3C[C@@H]12`, half-maximal inhibition (IC50) required 11.9 µM.

In turn, `C[C@]1(CO)CCC[C@@]2(CO)[C@H]1CC[C@]1(C)[C@@H]2CC[C@]2(C)Oc3ccc(O)cc3C[C@@H]12` returned an IC50 of 14.8 µM.

The molecule `C[C@]12CCC[C@](C)(C(=O)O)[C@@H]1CC[C@]1(C)[C@@H]2CC[C@]2(C)Oc3ccc(O)cc3C[C@@H]12` [Strongylophorin-3] registered an IC50 of 9 µM.

`C[C@@]12CC[C@@H]3[C@]4(CCC[C@@]3(C)C(=O)OC4)[C@H]1CC[C@]1(C)Oc3ccc(O)cc3C[C@@H]21` [strongylophorine-2] yielded an IC50 of over 24.4 µM.

Consider `C[C@@]12CC[C@@H]3[C@]4(CCC[C@]3(C)C(=O)OC4)[C@H]1CC[C@](C)(O)[C@H]2Cc1cc(O)ccc1O` [strongylophorine-8], for which the IC50 came to 21.2 µM.
